# In paper PMC10925693, “The Mla system and its role in maintaining outer membrane barrier function in Stenotrophomonas maltophilia” (Frontiers in Cellular and Infection Microbiology, 2024):
# Target: MlaC (Smlt4673) (Stenotrophomonas maltophilia, UniProt B2FP85)
# Assay: MicroScale Thermophoresis (MST), supported by nanoDSF Tm shift
# Type: binding
# Sequence of MlaC (Smlt4673) (B2FP85 entry or part of it): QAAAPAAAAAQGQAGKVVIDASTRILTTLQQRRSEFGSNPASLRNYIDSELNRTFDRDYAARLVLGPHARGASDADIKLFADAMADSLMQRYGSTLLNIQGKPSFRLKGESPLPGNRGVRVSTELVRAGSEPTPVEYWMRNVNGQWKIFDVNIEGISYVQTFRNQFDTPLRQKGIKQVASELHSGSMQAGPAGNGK
compound,measurement,value
"CCCCCCCCCCCCCC(=O)OC[C@H](COP(=O)(O)OCCN)OC(=O)CCCCCCCCCCCCC [PE14/14, PE C14:0/C14:0]",Kd,795 µM
